The results in this text go back to patent US20240166629A1, “HETEROCYCLIC COMPOUNDS CAPABLE OF ACTIVATING STING” (Boehringer Ingelheim International GmbH, priority 2022, published 2024).

One series addresses T1, human STING variant HAQ (Homo sapiens, UniProt Q86WV6, G230A/H232R/R293Q/R71H).
T1 construct: expressed in transfected cells; host or cells: THP1-Blue ISG: either parental cells (endogenous HAQ) or hSTING KO clone retrovirally transduced with HAQ
As to the kind of experiment: THP1-Blue ISG IRF-inducible SEAP reporter assay, STING HAQ-variant. The series is classed as cell-based. The settings on record: THP1-Blue ISG cells expressing STING HAQ (parental or re-introduced); 24 hours incubation; SEAP OD 620 nm. From the text:
(§1) Activation of the STING protein expressed in cell lines results in an increase of interferon production. By the stable integration of an interferon regulatory factor (IRF)-inducible SEAP gene (secreted embryonic alkaline phosphatase) reporter construct the functional interferon signaling pathway can be monitored. Using Invivogen's THP1-Blue™ ISG colorimetric enzyme assay and a suitable optical density (OD) reader the activity of SEAP can be detected and quantified. This technique could be used to characterize pharmacological modification of the STING pathway.
(§2) Several single nucleotide polymorphisms have been identified in the human STING gene. To determine the activity of the above described compounds, THP1-Blue™ ISG reporter cell lines expressing the different human STING variants have been generated. To do so, the endogenous human STING was first deleted using the CRISPR/CAS9 system: THP1-Blue ISG cells were electroporated with ALL-IN-ONE CRISPR plasmids targeting the STING gene (purchased from Sigma encoding the gRNA and GFP as a reporter gene for successful transduction). GFP positive cells then were sorted 24 h post transfection and expanded. Cells were then dispersed in semisolid methocel medium to allow single cell clone isolations. Clones were then screened for cGAMP responsiveness using the Quanti-Blue™ reporter assay. Non-responsive clones were subsequently analysed for STING loss by western blotting and sequencing of the STING locus.
(§3) For the overexpression of the human STING variants, a confirmed THP1-Blue™ ISG hSTING KO clone was transduced with individual retroviral plasmids (MSCV-ires-GFP-Blasti) encoding the allelic variants of hSTING (WT (H232R), HAQ, R232H, AQ and R293Q). Transduced cells were sorted for different levels of GFP fluorescence and STING allele expression was analysed by western blot.
(§4) Measurements of SEAP activity were performed in THP1-Blue™ ISG cells stably expressing the different human STING isoforms and the IRF-inducible SEAP reporter construct. Cells were cultivated in RPMI1640 medium with 10% fetal calf serum, 50 μg/ml Penicillin-Streptomycin, 100 μg/ml Zeocin, and 100 μg/ml Normocin in a 37°, 95% humidity and 5% CO2 incubator.
(§5) In preparation for the assay, the cells were distributed into the assay plates with a density of 10000 cells/15 μL per well. Compounds were prepared by an 8 point serial dilution in 50% aqueous DMSO and a final dilution step into medium to ensure a final DMSO concentration of 0.5% in the assay. 5 μL of diluted compounds were added to the plates, followed by a 24 hours incubation at 37° C.
(§6) At the day of the assay, 75 μl per well of Quanti-Blue™ reagent was added to all wells of the plate and the plate was incubated another 30 minutes at 37° C. The OD at 620 nm was measured on the EnVision reader (PerkinElmer).
Data of EC50 values on STING HAQ-variant can be found in table 2a. Shown data below were either derived from the parental THP1-Blue™ ISG cell lines (which express endogenously HAQ) or from genetically engineered THP1-Blue™ ISG cell lines in which first STING has been knocked-out and the HAQ specific STING isoform has been re-introduced as described above.
(In a reporter assay the amount or activity of a reporter protein is the signal.)

A further series is described as follows: in vitro. The settings on record: human, Caco-2, pH 7.4.
Series [1] has as its system Human STING (hSTING, UNIPROT entry Q86WV6, residues 155-341). The series can be described thus: Interaction with hSTING by differential scanning fluorimetry (DSF). The series is classed as binding. The settings on record: 100 μM test compound, 5 μM hSTING protein. The protocol: In DSF, the temperature at which a protein unfolds, also called the melting temperature Tm, is measured by changes in fluorescence of a dye that binds to the hydrophobic parts of the protein. Tm shifts upon binding of a small molecule are correlated with the binding affinity of this small molecule. As target protein, Human STING (hSTING, UNIPROT entry Q86WV6, residues 155-341, MW: 21578.4 Da; protein stock solution: c=1302 μM stock solution in 20 mM Tris, 100 mM NaCl, 2 mM TCEP pH 8.8) was used, as assay buffer 20 mM Tris, 150 mM NaCl pH7.5 was added where and as necessary.
Final concentrations of components in assay: 100 μM test compounds, 5 μM target protein, “5×” SYPR Orange (from stock solution SYPRO orange solution in DMSO (invitrogen cat.-no. 56650-500ul), concentration “5000×”)
Assay Procedure: • 1) Dilutions of compound stock solutions (10 mM in DMSO) were prepared in assay buffer (20 mM Tris, 150 mM NaCl; pH7.5) • 2) 5 μl fluorescent dye stock solution (5000×SYPRO Orange in DMSO) was mixed with 19 μl target protein (1302 μM) and 976 μl assay buffer. • 3) 2 μl of this protein-dye-mixture (25×SYPRO Orange and 25 μM Protein) was added to 8 μl diluted compound solution as prepared in step 1. Final volume was 10 μl. • 4) With every 20 compounds, two negative controls were measured. • 5) The plates were prepared for duplicate measurement and centrifuged for 2 min at 1000 g. • 6) For the measurement, a CFX384 Real-Time System (Bio-Rad) was used. The run consisted of 140 cycles with 0.5° C./cycle (temperature ramp 15 s/cycle, 25° C. to 95° C.).
Data analysis: The melting curves were processed in Bio-Rad CFX Manager. Peak type was set to “negative”. Two replicates of TM (melting temperature) measurements were averaged and the standard deviation was calculated.
On the technique in general: DSF heats the sample and reads unfolding from a dye or from intrinsic fluorescence.

Series [2] addresses T2, human STING variant H232R (WT) (Homo sapiens, UniProt Q86WV6, H232R).
T2 construct: expressed in transfected cells; host or cells: THP1-Blue ISG hSTING KO clone, retroviral MSCV-ires-GFP-Blasti
As to the kind of experiment: THP1-Blue ISG IRF-inducible SEAP reporter assay, STING H232R-variant. The class given is cell-based. The settings on record: THP1-Blue ISG hSTING KO cells expressing STING H232R; 24 hours incubation.
Excerpt: as §1, §2, §3, §4, §5, §6

Series [3] has as its target T3, human STING variant R232H (Homo sapiens, UniProt Q86WV6).
T3 construct: expressed in transfected cells; host or cells: THP1-Blue ISG hSTING KO clone, retroviral MSCV-ires-GFP-Blasti
The series can be described thus: THP1-Blue ISG IRF-inducible SEAP reporter assay, STING R232H-variant. The series is classed as cell-based. Particulars: THP1-Blue ISG hSTING KO cells expressing STING R232H; 24 hours incubation.
Excerpt: as §1, §2, §3, §4, §5, §6

In series [4] the target is T4, human STING variant R293Q (Homo sapiens, UniProt Q86WV6, H232R/R293Q).
T4 construct: expressed in transfected cells; host or cells: THP1-Blue ISG hSTING KO clone, retroviral MSCV-ires-GFP-Blasti
The series can be described thus: THP1-Blue ISG IRF-inducible SEAP reporter assay, STING R293Q-variant. The class given is cell-based. Particulars: THP1-Blue ISG hSTING KO cells expressing STING R293Q; 24 hours incubation.
Excerpt: as §1, §2, §3, §4, §5, §6

In the next series the target is T5, human STING variant AQ (Homo sapiens, UniProt Q86WV6, G230A/H232R/R293Q).
T5 construct: expressed in transfected cells; host or cells: THP1-Blue ISG hSTING KO clone, retroviral MSCV-ires-GFP-Blasti
The series can be described thus: THP1-Blue ISG IRF-inducible SEAP reporter assay, STING AQ-variant. The series is classed as cell-based. Particulars: THP1-Blue ISG hSTING KO cells expressing STING AQ; 24 hours incubation.
Excerpt: as §1, §2, §3, §4, §5, §6

T2 sequence (Q86WV6 whole entry H232R): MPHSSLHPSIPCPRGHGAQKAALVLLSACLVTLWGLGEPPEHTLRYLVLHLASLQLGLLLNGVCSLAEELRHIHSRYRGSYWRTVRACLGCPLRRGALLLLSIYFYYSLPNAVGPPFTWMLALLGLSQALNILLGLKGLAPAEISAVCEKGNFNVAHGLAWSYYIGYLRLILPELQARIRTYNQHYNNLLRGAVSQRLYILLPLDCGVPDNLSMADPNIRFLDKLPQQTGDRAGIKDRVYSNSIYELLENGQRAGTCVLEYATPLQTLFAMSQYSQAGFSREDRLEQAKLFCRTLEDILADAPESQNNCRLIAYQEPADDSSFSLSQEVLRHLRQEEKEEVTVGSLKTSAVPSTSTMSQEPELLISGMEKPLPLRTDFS
T1 sequence (Q86WV6 whole entry R71H/G230A/H232R/R293Q): as the sequence (Q86WV6 whole entry H232R) above, with R71H, G230A, R293Q counted along it
T5 sequence (Q86WV6 whole entry G230A/H232R/R293Q): as the sequence (Q86WV6 whole entry H232R) above, with G230A, R293Q counted along it
T3 sequence (Q86WV6 whole entry, stated change not applied): as the sequence (Q86WV6 whole entry H232R) above, with R232H counted along it
T4 sequence (Q86WV6 whole entry H232R/R293Q): as the sequence (Q86WV6 whole entry H232R) above, with R293Q counted along it
Procedure for in vitro: Caco-2 cells were obtained from Leibniz Institute DSMZ-German Collection of Microorganisms and Cell Cultures (Braunschweig, Germany) and cultured in DMEM (Dulbecco's modified Eagle medium) containing (in final concentrations) 10% FCS (fetal calf serum), 1% NEAA (non-essential amino acids), 2 mM Glutamin, 100 U/mL Penicillin and 100 μg/mL Streptomycin. Caco-2 cells were seeded either onto 24-well Transwell inserts (Corning, #3379) for bidirectional permeability assays at a density of 160,000 cells/cm^2 and cultured for 3 weeks, with media change on every second day.
For bidirectional permeability assays 10 mM DMSO stock solutions were diluted in transport buffer (final concentrations: 128.13 mM NaCl, 5.36 mM KCl, 1 mM MgSO4, 1.8 mM CaCl2, 4.17 mM NaHCO3, 1.19 mM Na2HPO4, 0.41 mM NaH2PO4, 15 mM 2-[4-(2-hydroxyethyl)piperazin-1-yl]ethanesulfonic acid (HEPES), 20 mM glucose, pH 7.4) containing 0.25% bovine serum albumin to a final concentration of 10 μM of the test compounds and added to the apical or basal compartment. Cells were incubated with the compounds for up to 2 h. Samples from the opposite compartment were taken at different timepoints.
Compound concentrations in the compartments were quantified using a RapidFire-based high-throughput HPLC/MS/MS system (high performance liquid chromatography/mass spectrometry; BioCius) that was customized to a fully automated and flexible platform, termed RIAS. In this modified setup, the sample was aspirated by a vacuum pump into a 10 μL sample loop for 250 ms and flushed onto a C4 cartridge (3.8 μL bed volume; BioCius) with the aqueous mobile phase (99.9% water, 0.09% formic acid, and 0.01% TFA; flow rate 1.5 mL/min). Prior to bioanalysis samples were spiked with internal standard solution and diluted with acetonitrile (ACN) for protein precipitation. Measurement was operated in multiplereaction monitoring (MRM) mode. Quantification was performed using external calibration. A solid-phase extraction step retained the analyte for 3000 ms while interfering matrix (e.g., buffer components) was removed. With a simple step gradient, the analyte was back-eluted from the cartridge for 3,000 ms with the organic mobile phase (99.9% acetonitrile/methanol [1:1, v:v], 0.09% formic acid, and 0.01% TFA) and flushed into the mass spectrometer at a flow rate of 1.25 mL/min. Afterwards, the cartridge was reequilibrated with the aqueous mobile phase for 500 ms (flow rate 1.5 mL/min). The RapidFire software and a customized control software were obtained from BioCius. QuickQuan 2.3, Xcalibur 2.0.7, and XDK 2.1.0.25 were used to operate the TSQ Vantage mass spectrometer (ThermoFisher, San Jose, CA) integrated to the RapidFire system. Mass spectral data-processing software QuickCalc 7.1.9 was purchased from ThermoFisher. The Master software for the RIAS was programmed in-house using LabVIEW (version 8.6.1; National Instruments, Austin, TX). Data analysis was performed in AssayExplorer 3.2 (Symyx, Sunnyvale, CA), and correlation plots were visualized in Spotfire version 2.2.0 (TIBCO, Palo Alto, CA).
Apparent permeability coefficients in the apical to basal direction (Papp,AB) and in the basal to apical direction (Papp,BA) and efflux ratios were calculated as follows:
Efflux ratio=Papp,BA/Papp,AB
where Q is the amount of compound recovered in the receiver compartment after the incubation time t, C0 the initial compound concentration given to the donor compartment, and s the surface area of the Transwell inserts. […] In addition, transepithelial electrical resistance (TEER) values are measured for each plate before the permeability assay, and total recovery in donor and receiver compartments was determined for each compound.

As usually defined, the EC50 is the concentration at which the effect is half-maximal. Broadly, the Papp A→B is how fast a substance crosses the layer from the apical side. High values mean fast passage, low ones slow passage. The efflux ratio is the permeability from basolateral to apical divided by that in the opposite direction, in the common usage. For `Cc1c(Cl)ccc2c(-c3cccc4nn(C)cc34)nn(-c3ccc(N4CCC(C(=O)O)CC4)nc3)c12` [compound 9, 1-(5-(6-chloro-2′,7-dimethyl-1H,2′H-[3,4′-biindazol]-1-yl)pyridin-2-yl)piperidine-4-carboxylic acid], the EC50 at human STING variant HAQ amounted to 700 nM. In “in vitro”, the Papp A→B at 10 μM came out at 10 ×10⁻⁶ cm/s and the efflux ratio at 10 μM stood at 1.5.

Turning to `Cc1c(Cl)ccc2c(-c3cccc4nn(C)cc34)nn(-c3ccc(N4CCC(S(C)(=O)=O)CC4)nc3)c12` [compound 2, 6-chloro-2′,7-dimethyl-1-(6-(4-(methylsulfonyl)piperidin-1-yl)pyridin-3-yl)-1H,2′H-3,4′-biindazole], the “TM (changes in TM, thermal shift)” value in series [1] was 22 K. The half-maximal effective concentration (EC50) is 900 nM at human STING variant HAQ; 300 nM in series [2]; 300 nM in series [3]; 700 nM in series [4]; 600 nM on human STING variant AQ.

With `Cc1c(Cl)ccc2c(-c3cccc4nn(C)cc34)nn(-c3ccc(N4C[C@@H]5[C@H](C4)[C@H]5C(=O)O)nc3)c12` [compound 8, (1R,5S,6r)-3-(5-(6-chloro-2′,7-dimethyl-1H,2′H-[3,4′-biindazol]-1-yl)pyridin-2-yl)-3-azabicyclo[3.1.0]hexane-6-carboxylic acid], the “TM (changes in TM, thermal shift)” value in series [1] is 22 K. Also, the 50% effective concentration (EC50) (at human STING variant HAQ; in series [2]; in series [3]; in series [4]; at human STING variant AQ) was 100 nM each time. The compound also showed a Papp A→B at 10 μM in “in vitro” of 11 ×10⁻⁶ cm/s. Moreover, the efflux ratio at 10 μM in the series “in vitro” is 1.4.

As for `Cc1c(F)ccc2c(-c3cccc4nn(C)cc34)nn(-c3ccc(N4CCC(C(=O)O)CC4)nc3)c12` [compound 7, 1-(5-(6-fluoro-2′,7-dimethyl-1H,2′H-[3,4′-biindazol]-1-yl)pyridin-2-yl)piperidine-4-carboxylic acid], the EC50 on human STING variant HAQ was determined as 800 nM. The EC50 in series [2] came to 200 nM. In addition, in “in vitro”, the Papp A→B at 10 μM was 13 ×10⁻⁶ cm/s and the efflux ratio at 10 μM is 1.8.

For the compound `Cc1cc(F)cc2c(-c3cccc4nn(C)cc34)nn(-c3ccc(N4CCS(=O)(=O)CC4)nc3)c12` [Example #1, 4-(5-(5-fluoro-2′,7-dimethyl-1H,2′H-[3,4′-biindazol]-1-yl)pyridin-2-yl)thiomorpholine 1,1-dioxide], the “TM (changes in TM, thermal shift)” value in series [1] stood at 21 K. In addition, the EC50 on human STING variant HAQ was 2300 nM; in series [2] it was 800 nM; in series [3] it was 700 nM; in series [4], 2200 nM; on human STING variant AQ it was 1800 nM.

On to `Cc1c(Cl)c(F)cc2c(-c3cccc4nn(C)cc34)nn(-c3ccc(N4C[C@@H]5[C@H](C4)[C@H]5C(=O)O)nc3)c12` [compound 13, (1R,5S,6r)-3-(5-(6-chloro-5-fluoro-2′,7-dimethyl-1H,2′H-[3,4′-biindazol]-1-yl)pyridin-2-yl)-3-azabicyclo[3.1.0] hexane-6-carboxylic acid], for which the EC50 at human STING variant HAQ was determined as 300 nM. Moreover, in the series “in vitro”, the Papp A→B at 10 μM stood at 2 ×10⁻⁶ cm/s and the efflux ratio at 10 μM was 3.6.

As for `Cc1cc(Cl)cc2c(-c3cccc4nn(C)cc34)nn(-c3ccc(N4C[C@@H]5[C@H](C4)[C@H]5C(=O)O)nc3)c12` [compound 11, (1R,5S,6r)-3-(5-(5-chloro-2′,7-dimethyl-1H,2′H-[3,4′-biindazol]-1-yl)pyridin-2-yl)-3-azabicyclo[3.1.0]hexane-6-carboxylic acid], in series [1], the “TM (changes in TM, thermal shift)” value is 24 K. For the same compound, the EC50 worked out at 3900 nM at human STING variant HAQ; 800 nM in series [2]; 900 nM in series [3]; 3000 nM in series [4]; 2400 nM on human STING variant AQ.

Consider `Cc1cc(Cl)cc2c(-c3cccc4nn(C)cc34)nn(-c3ccc(N4CCC(C(=O)O)CC4)nc3)c12` [compound 10, 1-(5-(5-chloro-2′,7-dimethyl-1H,2′H-[3,4′-biindazol]-1-yl)pyridin-2-yl)piperidine-4-carboxylic acid], for which, in series [1], the “TM (changes in TM, thermal shift)” value is 19 K. In addition, the EC50 stood at 6600 nM at human STING variant HAQ; 2200 nM in series [2]; 2200 nM in series [3]; 7800 nM in series [4]; 5600 nM at human STING variant AQ.

For the compound `Cc1c(Cl)c(F)cc2c(-c3cccc4nn(C)cc34)nn(-c3ccc(N4CCC(C(=O)O)CC4)nc3)c12` [compound 12, 1-(5-(6-chloro-5-fluoro-2′,7-dimethyl-1H,2′H-[3,4′-biindazol]-1-yl)pyridin-2-yl) piperidine-4-carboxylic acid], the EC50 was found to be 700 nM on human STING variant HAQ; 300 nM in series [2]; 300 nM in series [3]; 600 nM in series [4]; 600 nM on human STING variant AQ. In the series “in vitro”, this compound had a Papp A→B at 10 μM of 4 ×10⁻⁶ cm/s. For the same compound, in the series “in vitro”, the efflux ratio at 10 μM was 6.4.

`Cc1c(F)ccc2c(-c3cccc4nn(C)cc34)nn(-c3ccc(N4C[C@@H]5[C@H](C4)[C@H]5C(=O)O)nc3)c12` [compound 6, (1R,5S,6r)-3-(5-(6-fluoro-2′,7-dimethyl-1H,2′H-[3,4′-biindazol]-1-yl)pyridin-2-yl)-3-azabicyclo[3.1.0]hexane-6-carboxylic acid]: at human STING variant HAQ, the EC50 worked out at 300 nM. In addition, in series [2], the EC50 was 200 nM. Besides, in the series “in vitro”, the Papp A→B at 10 μM was 9 ×10⁻⁶ cm/s and the efflux ratio at 10 μM turned out to be 2.4.
